Assay results published in article PMC8081663, “A biosensor for the direct visualization of auxin” (Nature, 2021).

What was measured:
Test in all cases: ITC, one-site model
Format in all cases: binding
TrpR [1] = biological target: T1, TrpR (Escherichia coli, UniProt P0A881)
T1 construct: TrpR without fluorescent proteins, pET21b(+), expressed in E. coli BL21(DE3), NiIMAC and Superdex S75; homodimer; template Trp-CTY / Trp-CTYT sensors (Addgene 13533, 13534)
From the text: (§1) ITC, one-site model on TrpR

TrpR [2] = biological target: T2, TrpR (Escherichia coli, UniProt P0A881, M42F/N87G/S88Y/T44L/T81M)
T2 construct: TrpR without fluorescent proteins, pET21b(+), expressed in E. coli BL21(DE3), NiIMAC and Superdex S75; homodimer; template Trp-CTY / Trp-CTYT sensors (Addgene 13533, 13534)
From the text: as §1

TrpR [3] = biological target: T3, TrpR (Escherichia coli, UniProt P0A881, N87G/S88Y/T44L/T81M)
T3 construct: TrpR without fluorescent proteins, pET21b(+), expressed in E. coli BL21(DE3), NiIMAC and Superdex S75; homodimer; template Trp-CTY / Trp-CTYT sensors (Addgene 13533, 13534)
From the text: as §1

TrpR [4] = biological target: T4, TrpR (Escherichia coli, UniProt P0A881, S88Y)
T4 construct: TrpR without fluorescent proteins, pET21b(+), expressed in E. coli BL21(DE3), NiIMAC and Superdex S75; homodimer; template Trp-CTY / Trp-CTYT sensors (Addgene 13533, 13534)
From the text: as §1

TrpR [5] = biological target: T5, TrpR (Escherichia coli, UniProt P0A881, S88Y/T44L)
T5 construct: TrpR without fluorescent proteins, pET21b(+), expressed in E. coli BL21(DE3), NiIMAC and Superdex S75; homodimer; template Trp-CTY / Trp-CTYT sensors (Addgene 13533, 13534)
From the text: as §1

TrpR [6] = biological target: T6, TrpR (Escherichia coli, UniProt P0A881, S88Y/T44L/T81M)
T6 construct: TrpR without fluorescent proteins, pET21b(+), expressed in E. coli BL21(DE3), NiIMAC and Superdex S75; homodimer; template Trp-CTY / Trp-CTYT sensors (Addgene 13533, 13534)
From the text: as §1

O=C(O)Cc1c[nH]c2ccccc12 [IAA]
Kd (TrpR [1]): 137.4 ± 0.5 µM
Kd (TrpR [2]): 1.5 ± 0.1 µM
Kd (TrpR [3]): 1.6 µM
Kd (TrpR [4]): 14.6 ± 0.1 µM
Kd (TrpR [5]): 7.8 ± 0.3 µM
Kd (TrpR [6]): 3 ± 0.1 µM

N#CCc1c[nH]c2ccccc12 [IAN]
Kd (TrpR [1]): 63.7 ± 1.7 µM
Kd (TrpR [2]): 14.3 ± 0.4 µM
Kd (TrpR [3]): 46.4 ± 1.7 µM
Kd (TrpR [4]): 17.9 ± 0.6 µM
Kd (TrpR [5]): 19.5 ± 0.6 µM
Kd (TrpR [6]): 33.6 ± 0.2 µM

N[C@@H](Cc1c[nH]c2ccccc12)C(=O)O [TRP]
Kd (TrpR [1]): 25 ± 0.7 µM
